How the values were obtained:
[1] = Paclitaxel content of polyurethane coated stents by extraction in dichloromethane; type: physicochemical; conditions: 30 mg/ml paclitaxel concentration
Description: Slotted tube stainless steel stents are coated with polyurethane by spraying a 1 wt % solution of CHRONOFLEX® polyurethane (made by CT Biomaterials) in tetrahydrofuran directly onto the stent surface. The coated stents are dried in a vacuum oven for three hours at 70° C.
Each polyurethane coated stent is placed in a vial, which is filled to maximum volume (1.5 ml) with a solution of paclitaxel in ethanol, and sealed. The stent is stored in the vial for three days at room temperature. The stent is then removed from the vial and dried for one hour at 65° C.
The above procedure is conducted using solutions of varying concentrations. Each stent is analyzed for paclitaxel content by extraction in dichloromethane solvent. Samples 1 and 2 were obtained using a paclitaxel concentration of 10 mg/ml, samples 3 and 4 using a 20 mg/ml solution and sample 5 and 6 using a 30 mg/ml solution.
Seven polyurethane coated stents are loaded using a 30 mg/ml paclitaxel solution, removed and dried as set forth above. Paclitaxel from four of the stents is extracted in dichloromethane solvent.

[2] = Saturation concentration of paclitaxel in ethanol; type: physicochemical
Description: Nevertheless, the 30 mg/ml paclitaxel concentration is chosen for release studies as it produces the maximum paclitaxel loading (21-23%), while still being sufficiently below the saturation concentration for paclitaxel in ethanol (39 mg/ml).

[3] = In-vivo delivery of paclitaxel from polyacrylic acid-based coated balloon catheter; parameters: species or system pig; conditions: for Amount of paclitaxel released in bloodstream: loaded minus extracted; for Amount of paclitaxel extracted from balloon after delivery: polyacrylic acid-based coated balloon catheter
Description: A 9.8 mg/ml solution of radio-labeled paclitaxel in chloroform is prepared. A total of 50 μl of the solution is applied via pipet to a balloon catheter having a polyacrylic acid-based coating. The paclitaxel from the coated balloon catheter is then released in-vivo to porcine arteries. After release for a predetermined amount of time, the paclitaxel remaining in the coating is extracted using two sequential ethanol washes. The amount of paclitaxel released in the pig bloodstream, as calculated from the amount of paclitaxel loaded into the coating minus that extracted from the coating after delivery, is shown in Table II.

CC(=O)O[C@H]1C(=O)[C@@]2(C)[C@H]([C@H](OC(=O)c3ccccc3)[C@]3(O)C[C@H](OC(=O)[C@H](O)[C@@H](NC(=O)c4ccccc4)c4ccccc4)C(C)=C1C3(C)C)[C@]1(OC(C)=O)CO[C@@H]1C[C@@H]2O [paclitaxel]
maximum paclitaxel loading [1]: 21-23% | saturation concentration for paclitaxel in ethanol [2]: 39 mg/mL | % of paclitaxel released in bloodstream ([3]; 1 minute in bloodstream): 63% | Amount of paclitaxel released in bloodstream ([3]; 1 minute in bloodstream): 307 µg | Amount of paclitaxel extracted from balloon after delivery ([3]; 1 minute in bloodstream): 182 ± 1 µg | % of paclitaxel released in bloodstream ([3]; 5 minutes in bloodstream): 68% | Amount of paclitaxel released in bloodstream ([3]; 5 minutes in bloodstream): 330 µg | Amount of paclitaxel extracted from balloon after delivery ([3]; 5 minutes in bloodstream): 160 ± 30 µg
